Data from US20160069865A1, “GM1 GANGLIOSIDOSIS HUMAN CELL MODEL AND USE THEREOF” (Korea Research Institute of Bioscience and Biotechnology, priority 2014, published 2016).

Assays:
GM1-NPCs [1] = test: Gene expression pattern in GM1-NPCs treated with inflammasome inhibitor (microarray, qPCR); assay type: cell-based, human; conditions: for direction of the gene expression pattern change: genes with changed expression in treated GM1-NPCs, FIG. 31, FIG. 33; for share of oligo probe pairs / genes displaying the changed expression pattern: microarray, total 27,375 oligo probe pairs, GM1-NPCs treated with 10 μM Z-YVAD-FMK or 1 μg/ml rhIL1RA
Protocol: To investigate whether or not the neural damage could be alleviated according to the increase of the activation of inflammasome related metabolic pathway in GM1, the gene expression pattern in GM1-NPCs treated with the inflammasome inhibitor was investigated.
Particularly, GM1-NPCs were differentiated according to the method described in Example <4-1>, and then treated with rhIL1RA or Z-YVAD-FMK by the same manner as described in Example <9-1>. Microarray was performed by the same manner as described in Example <7-1> in order to investigate the up- or down-regulation of the gene involved in inflammasome. […] WT-NPC was used as the normal control. As for the negative control, GM1-NPCs were treated with DMSO instead of rhIL1RA or Z-YVAD-FMK. The expression pattern (either up- or down regulation) and the mRNA expression level were investigated by the same manner as described above.

GM1-NPCs [2] = test: Morphology of GM1-NPCs originated neurosphere after treatment with inflammasome inhibitors (phase-contrast microscopy); assay type: cell-based, human; conditions: GM1-iPSCs and neural progenitor cells differentiated from the same; summary statement
Protocol: To investigate the recovery of neural damage caused by the increased activation of inflammasome related metabolic pathway in GM1, GM1-NPCs were treated with the inflammasome inhibitors IL1β antagonist (rhIL1RA) and caspase-1 inhibitor (Z-YVAD-FMK), and then the morphology of GM1-NPCs was investigated.
Particularly, the differentiation of GM1-NPCs was induced by the same manner as described in Example <4-1>. Then, the induced GM1-NPCs were cultured in the culture medium respectively treated with 1 μg/ml rhIL1RA (R&D Systems, USA) or 10 μM Z-YVAD-FMK (Merck Millipore, Germany) in order to inhibit inflammasome therein. 2˜4 weeks later, the cultured GM1-NPCs originated neurosphere was obtained. The morphology of neurosphere was observed by phase-contrast microscopy.

[3] = GM1-NPCs treated with 10 μM Z-YVAD-FMK, FIG. 32

Molecule	increase of the reduced B4GALNT expression (GM1-NPCs [1]; [3]) [fold]	reduction of GLB1 expression compared with that in GM1-NPCs (GM1-NPCs [1]; [3]) [%]	direction of the gene expression pattern change (GM1-NPCs [1])	share of oligo probe pairs / genes displaying the changed expression pattern (GM1-NPCs [1]) [%]	GM1 patient-specific cell morphology and gene expression pattern (GM1-NPCs [2])
COC(=O)C[C@H](NC(=O)[C@H](C)NC(=O)[C@@H](NC(=O)C(Cc1ccc(O)cc1)NC(=O)OCc1ccccc1)C(C)C)C(=O)CF (stereo partly drawn) [Z-YVAD-FMK, methyl (3S)-3-[(2S)-2-[(2S)-2-(2-{[(benzyloxy)carbonyl]amino}-3-(4-hydroxyphenyl)propanamido)-3-methylbutanamido]propanamido]-5-fluoro-4-oxopentanoate]	2.6	47	tendency to recover their gene expression patterns changed by GM1 mediated neural damage back to the normal pattern	9.3	recovering the GM1 patient-specific cell morphology and gene expression pattern to the normal ones
rhIL1RA: interleukin 1-receptor antagonist protein, SEQ. ID. NO: 2, commercial (cat #280-RA-050; R&D systems)	–	–	tendency to recover the abnormal gene expression in GM1 cells to the normal expression pattern	3.6	recovering the GM1 patient-specific cell morphology and gene expression pattern to the normal ones
